Drawing on patent US9102675B2, “3-Cyanoaryl-1H-pyrrolo[2,3-B] pyridine derivatives” (MERCK PATENT GMBH, priority 2011, dated 2015), this text covers IC50 for 13 compounds.

For one experiment, the target named is T1, IKKε (Homo sapiens, UniProt Q14164).
T1 sequence (Q14164 1-716): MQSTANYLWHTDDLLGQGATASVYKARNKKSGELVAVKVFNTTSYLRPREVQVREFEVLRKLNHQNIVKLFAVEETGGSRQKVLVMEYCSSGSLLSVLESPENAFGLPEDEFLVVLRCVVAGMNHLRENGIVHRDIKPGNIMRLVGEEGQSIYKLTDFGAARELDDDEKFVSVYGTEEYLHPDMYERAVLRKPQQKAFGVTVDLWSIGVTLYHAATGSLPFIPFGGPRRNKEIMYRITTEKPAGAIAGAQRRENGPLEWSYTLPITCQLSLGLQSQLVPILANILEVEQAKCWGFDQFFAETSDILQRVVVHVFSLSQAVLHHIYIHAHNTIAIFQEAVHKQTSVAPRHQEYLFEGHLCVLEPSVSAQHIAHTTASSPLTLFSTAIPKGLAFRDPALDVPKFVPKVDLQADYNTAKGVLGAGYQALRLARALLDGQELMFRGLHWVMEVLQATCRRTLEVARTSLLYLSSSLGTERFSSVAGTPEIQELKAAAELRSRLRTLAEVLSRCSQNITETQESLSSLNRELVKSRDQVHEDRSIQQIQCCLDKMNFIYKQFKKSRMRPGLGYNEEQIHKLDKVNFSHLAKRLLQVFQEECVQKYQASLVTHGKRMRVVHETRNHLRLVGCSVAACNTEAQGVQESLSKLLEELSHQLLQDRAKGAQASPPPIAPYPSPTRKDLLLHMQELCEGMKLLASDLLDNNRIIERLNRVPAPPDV
Briefly: IKKε kinase assay (384-well flashplate assay). It counts as biochemical. The settings on record: 10 μM ATP, 1 nM IKKε; read-out: IKKε enzyme assay IC50. The procedure: Test for the Inhibition of IKKε
IKKε—Kinase Assay (IKKepsilon)
The kinase assay is performed as 384-well flashplate assay (for example for Topcount measurement).
1 nM IKKε, 800 nM biotinylated IκKα(19-42) peptide (Biotin-C6-C6-[…]) and 10 μM ATP (spiked with 0.3 μCi of ^33P-ATP/well) are incubated at 30° C. for 2 hours in a total volume of 50 μl (10 mM MOPS, 10 mM Mg acetate, 0.1 mM EGTA, 1 mM dithiothreitol, 0.02% of Brij35, 0.1% of BSA, 0.1% of BioStab, pH 7.5) with or without test compound. The reaction is stopped using 25 μl of 200 mM EDTA. After 30 min at room temperature, the liquid is removed, and each well is washed three times with 100 μl of 0.9% sodium chloride solution. Non-specific reaction is determined in the presence of 3 μM MSC2119074 (BX-795). The radioactivity is measured using a Topcount (Perkin Elmer). The results (for example IC50 values) are calculated using program tools provided by the IT Department (for example AssayExplorer, Symyx).

Another experiment deals with TBK1 + IKKε. Briefly: TBK1 + IKKε cell assay: dose response inhibition of phospho-IRF3 @ Ser 386 in MDA-MB-468 cells after poly(I:C) stimulation. The settings on record: nuclear phospho-IRF3 Ser386, read-out: TBK1 + IKKε cell assay IC50. It is filed as cell-based. From the text:
Dose response inhibition of phospho-IRF3 @ Ser 386 cell/MDAMB468/INH/PHOS/IMAG/pIRF3
Although TBK1 and IKKε are mainly known as key substances in the innate immune response, recent findings have indicated a role for TBK1 and IKKε in Ras-induced oncogenic transformation. TBK1 was identified as RaIB effector in the Ras-like (RaI)-guanine nucleotide exchange factor (GEF) pathway that is required for Ras-induced transformation. TBK1 directly activates IRF3 which, on phosphorylation, homodimerises and translocates to the nucleus, where it activates processes associated with inflammation, immune regulation, cell survival and proliferation.
This assay has been developed in order to assess the efficacy/potency of TBK1/IKKε inhibitor compounds based on the immunocytochemical detection of nucleus-localised phospho-IRF3, a target directly downstream of TBK1. Treatment with polyinosine-polycytidylic acid (poly(I:C), a synthetic analogue of double-stranded RNA (dsRNA), a molecular pattern associated with viral infection and recognised by Toll-like receptor 3 (TLR3) is used to induce TBK1/IKKε activity and IRF3 phosphorylation at Ser386.
Day 1: MDA-MB-468 cells are detached using HyQ-Tase, counted and sown into a 384-well plate with TC surface and clear bottom in a density of 10,000 cells per well in a total volume of 35 μl of complete medium. Alternatively, the cells are sown directly from frozen glass vials.
Day 2: The cells are pre-treated with inhibitor compounds for 1 h prior to poly(I:C) stimulation. After incubation for 2 h with poly(I:C), the cells are fixed in (para)formaldehyde (PFA) and permeabilised using methanol (MeOH). The cells are then blocked and incubated with an anti-pIRF3 antibody at 4° C. overnight.
Day 3: The primary antibody is washed off, an AlexaFluor488-conjugated secondary antibody is added, the cells are contrast-stained with propidium iodide, followed by image acquisition on an IMX ultra-high content reader.
Plating medium=culture medium: • RPMI 1640, Invitrogen #31870 • 10% of FCS, Invitrogen #10270-106 • 2 mM Glutamax, Invitrogen #35050-038 • 1 mM sodium pyruvate, Invitrogen #11360 • 1% of Pen/Strep • 37° C., 5% of CO2
Plates: 384-well bottom cell culture plates with black/clear bottom, Falcon #35 3962 or Greiner #781090
Subcultivation: HyQ-Tase, Thermo Scientific (HyClone) # SV30030.01
Poly(I:C) (LMW), Invitrogen # tlrl-picw (prepare 20 mg/ml stock solution in sterile PBS, denature 30 min 55° C. in a water bath, slowly cool to RT, store at −20° C. in aliquots)
a 10-point dose-response curve with MSC2119074A-4=BX-795 is included in each experiment
Formaldehyde (methanol-free, 16%, ultrapure EM grade), Polysciences #18814 (storage RT), final conc.: 4%
Goat serum, PAA # B15-035 (storage 4° C., long term −20° C.), final conc.: 10%
BSA (IgG- and protease-free, 30%), US-Biological # A1317 (storage 4° C., long term −20° C.), final conc.: 2%
Tween 20 detergent, Calbiochem #655204 (storage RT), (prepare 10% stock solution in water; final conc.: 0.1%)
Anti-pIRF-3 rabbit mAb, Epitomics #2526-B (storage −20° C.), final conc.: 1:2000 in PBS/2% of BSA
Alexa Fluor goat-anti-rabbit-488, Invitrogen # A11034 or # A11008 (storage 4° C., dark), final conc.: 1:2000 in PBS/2% of BSA/0.1% of Tween
Propidium iodide (PI), Fluka #81845, 1 mg/ml in H2O (storage 4° C., dark), final conc.: 0.2 μg/ml
(1) Sow 10,000 cells/well/35μof complete RPMI +10% FCS into 384-well bottom cell culture plates with black / clear bottom,
(2) Incubate for 2 h at room temperature on the bench, followed by further incubation for 22 h at 37° C., 5% of CO2 and 90% RH. […]

Where [1] appears, read: Homo sapiens, MDA-MB-468, MDA-MB-468 cells.

Where two headings read alike, the source gives them in different places. Where only a bound is given, the exact number is not on record here.

As usually defined, the IC50 is the concentration that gives 50% inhibition.

As for `CN1CCC(n2cc(-c3cnc4[nH]cc(-c5ccc(OC6CCOCC6)c(C#N)c5)c4c3)nn2)CC1` [Compound A23, 5-[5-[1-(1-methyl-4-piperidyl)triazol-4-yl]-1H-pyrrolo[2,3-b]pyridin-3-yl]-2-tetrahydropyran-4-yloxybenzonitrile], the 50% inhibitory concentration (IC50) was under 300 nM on IKKε and 300 to 3000 nM with TBK1 + IKKε (MDA-MB-468 cells).
As to `CC1(COc2ccc(-c3c[nH]c4ncc(-c5cnn(C6CCNCC6)c5)cc34)cc2C#N)COC1` [Compound A24, 2-[(3-Methyloxetan-3-yl)methoxy]-5-[5-[1-(4-piperidyl)pyrazol-4-yl]-1H-pyrrolo[2,3-b]pyridin-3-yl]-benzonitrile], the concentration for half-maximal inhibition (IC50) was under 300 nM at IKKε and 300 to 3000 nM in the experiment with TBK1 + IKKε (setting [1]).
For the compound `N#Cc1cc(-c2c[nH]c3ncc(-c4cnn(C5COC5)c4)cc23)ccc1OC1CCOCC1` [Compound A26, 5-[5-[1-(Oxetan-3-yl)pyrazol-4-yl]-1H-pyrrolo[2,3-b]-pyridin-3-yl]-2-tetrahydropyran-4-yloxybenzonitrile], the 50% inhibitory concentration (IC50) at IKKε and with TBK1 + IKKε (setting [1]) was under 300 nM throughout.
For `N#Cc1cc(-c2c[nH]c3ncc(-c4cn(CCN5CCCC5)nn4)cc23)ccc1OC1CCOCC1` [Compound A27, 5-[5-[1-(2-Pyrrolidin-1-ylethyl)triazol-4-yl]-1H-pyrrolo-[2,3-b]pyridin-3-yl]-2-tetrahydropyran-4-yloxybenzo-nitrile], the half-inhibitory concentration (IC50) on IKKε is under 300 nM; in the experiment with TBK1 + IKKε (setting [1]) it was 300 to 3000 nM.
For `Cn1cc(-c2cnc3[nH]cc(-c4cnc(OC5CCOCC5)c(C#N)c4)c3c2)cn1` [Compound A30, 5-[5-(1-Methylpyrazol-4-yl)-1H-pyrrolo[2,3-b]pyridin-3-yl]-2-tetrahydropyran-4-yloxypyridine-3-carbonitrile] the same measures were under 300 nM and 300 to 3000 nM.
For `Cn1cc(-c2cnc3[nH]cc(-c4ccc(OC5COC5)c(C#N)c4)c3c2)cn1` [Compound A31, 5-[5-(1-methyl-1H-pyrazol-4-yl)-1H-pyrrolo[2,3-b]pyridin-3-yl]-2-(oxetan-3-yloxy)benzonitrile] the same measures were under 300 nM and 3000 to 50000 nM.
Taken in the same sequence, the figures for `Cn1cc(-c2cnc3[nH]cc(-c4ccc(OCC5(C)COC5)c(C#N)c4)c3c2)cn1` [Compound A32, 2-(3-methyloxetan-3-ylmethoxy)-5-[5-(1-methyl-1H-pyrazol-4-yl)-1H-pyrrolo[2,3-b]pyridin-3-yl]benzonitrile] were under 300 nM and 300 to 3000 nM.
As for `N#Cc1cc(-c2c[nH]c3ncc(-c4cnn(CCN5CCCC5)c4)cc23)cnc1OC1CCOCC1` [Compound A33, 5-{5-[1-(2-Pyrrolidin-1-ylethyl)-1H-pyrazol-4-yl]-1H-pyrrolo[2,3-b]pyridin-3-yl}-2-(tetrahydropyran-4-yl-oxy)nicotinonitrile], the figures for the IC50 on IKKε and with TBK1 + IKKε (setting [1]) were under 300 nM and 300 to 3000 nM, respectively.
For `N#Cc1cc(-c2c[nH]c3ncc(-c4cnn(C5COC5)c4)cc23)ccc1OC1COC1` [Compound A34, 2-(oxetan-3-yloxy)-5-[5-(1-oxetan-3-yl-1H-pyrazol-4-yl)-1H-pyrrolo-[2,3-b]pyridin-3-yl]benzonitrile] the same measures were under 300 nM and 3000 to 50000 nM.
Taken in the same sequence, the figures for `CC1(COc2ccc(-c3c[nH]c4ncc(-c5cnn(C6COC6)c5)cc34)cc2C#N)COC1` [Compound A35, 2-(3-methyloxetan-3-ylmethoxy)-5-[5-(1-oxetan-3-yl-1H-pyrazol-4-yl)-1H-pyrrolo[2,3-b]-pyridin-3-yl]benzonitrile] were under 300 nM and 300 to 3000 nM.
For `CC1(COc2ccc(-c3c[nH]c4ncc(-c5cn[nH]c5)cc34)cc2C#N)COC1` [Compound A36, 2-(3-methyloxetan-3-ylmethoxy)-5-[5-(1H-pyrazol-4-yl)-1H-pyrrolo[2,3-b]pyridin-3-yl]benzonitrile] the same measures were under 300 nM and 3000 to 50000 nM.
With `N#Cc1cc(-c2c[nH]c3ncc(-c4cnn(C5COC5)c4)cc23)cnc1OC1CCOCC1` [Compound A37, 5-[5-(1-Oxetan-3-yl-1H-pyrazol-4-yl)-1H-pyrrolo-[2,3-b]pyridin-3-yl]-2-(tetrahydropyran-4-yloxy)-nicotinonitrile], the IC50 on IKKε was under 300 nM; in the experiment with TBK1 + IKKε (setting [1]), 3000 to 50000 nM.
For `COCCn1cc(-c2cnc3[nH]cc(-c4cnc(OC5CCOCC5)c(C#N)c4)c3c2)cn1` [Compound A38, 5-{5-[1-(2-Methoxyethyl)-1H-pyrazol-4-yl]-1H-pyrrolo-[2,3-b]pyridin-3-yl}-2-(tetrahydropyran-4-yloxy)-nicotinonitrile], the IC50 is under 300 nM on IKKε and 300 to 3000 nM in the experiment on TBK1 + IKKε (setting [1]).
